Laboratory results reported in BindingDB's records for doi:10.1016/j.bmcl.2003.10.074 (University of Kentucky, 2004).
pKi: −log10 of the molar value.

Experiment: Binding affinity towards blood brain barrier choline transporter at 10 uM using rat brain

Structure (SMILES) | pKi
CCCCCCCC[N+](C)(C)CCO [(2-Hydroxy-ethyl)-dimethyl-octyl-ammonium] | 5.00
CCCCCCCC[n+]1cccc([C@@H]2CCCN2C)c1 [(S)-3-(1-methylpyrrolidin-2-yl)-1-octylpyridinium iodide] | 4.31
CCCCCCCCCC[n+]1cccc([C@@H]2CCCN2C)c1 [1-Decyl-3-((S)-1-methyl-pyrrolidin-2-yl)-pyridinium; iodide] | 4.57

Next, values leading:

pKi | Structure (SMILES)
3.60 | CCCCCCCC[n+]1ccccc1 [1-Octyl-pyridinium; iodide]
3.60 | CCCC[n+]1ccccc1 [1-Butyl-pyridinium]
